The values that follow come from ChEMBL document CHEMBL3734748, “Design, synthesis, and biological activity of N-alkylated analogue of NCL1, a selective inhibitor of lysine-specific demethylase 1” (Medchemcomm, 2015).

One assay concerns SH-SY5Y. The assay is described as follows: Antiproliferative activity against human SH-SY5Y cells assessed as growth inhibition after 48 h by MTT assay. The class given is functional.
In a further assay the test system is HeLa. The experiment in a line: Antiproliferative activity against human HeLa cells assessed as growth inhibition after 48 h by MTT assay. The class given is functional.
Assay [1] deals with T1, Lysine-specific histone demethylase 1A (Homo sapiens, UniProt O60341). The assay is described as follows: Inhibition of full length human fusion His6 tagged LSD1 expressed in Escherichia coli BL21(DE3) cells using H3K4me2 peptide substrate preincubated for 5 mins by peroxidase-coupled method.
For assay [2], the target named is T1, Lysine-specific histone demethylase 1A. The assay is described as follows: Time-dependent inhibition of full length human fusion His6 tagged LSD1 expressed in Escherichia coli BL21(DE3) cells assessed as enzyme inactivation using H3K4me2 peptide substrate preincubated for 5 mins by peroxidase-coupled method.
Assay [3] has the same target. The assay is described as follows: Inhibition of LSD1 in human SH-SY5Y cells assessed as induction of H3K4me2 accumulation at 10 uM after 24 hrs by Western blot method. The class given is cell-based. On the technique in general: A western blot detects proteins with antibodies after separation by electrophoresis.
Assay [4] shares this target. The experiment in a line: Inhibition of full length human fusion His6 tagged LSD1 expressed in Escherichia coli BL21(DE3) cells assessed as FAD-NCL1 adduct formation at 100 uM incubated for 22 hrs by MALDI-TOF mass spectrometry.
Assay [5] has the same target. The assay is described as follows: Inhibition of LSD1 in human SH-SY5Y cells assessed as induction of H3K4me2 accumulation at 30 uM after 24 hrs by Western blot method. Type of assay: cell-based.
The target of assay [6] is T2, Amine oxidase [flavin-containing] A (Homo sapiens, UniProt P21397).
T2 sequence (P21397 whole entry): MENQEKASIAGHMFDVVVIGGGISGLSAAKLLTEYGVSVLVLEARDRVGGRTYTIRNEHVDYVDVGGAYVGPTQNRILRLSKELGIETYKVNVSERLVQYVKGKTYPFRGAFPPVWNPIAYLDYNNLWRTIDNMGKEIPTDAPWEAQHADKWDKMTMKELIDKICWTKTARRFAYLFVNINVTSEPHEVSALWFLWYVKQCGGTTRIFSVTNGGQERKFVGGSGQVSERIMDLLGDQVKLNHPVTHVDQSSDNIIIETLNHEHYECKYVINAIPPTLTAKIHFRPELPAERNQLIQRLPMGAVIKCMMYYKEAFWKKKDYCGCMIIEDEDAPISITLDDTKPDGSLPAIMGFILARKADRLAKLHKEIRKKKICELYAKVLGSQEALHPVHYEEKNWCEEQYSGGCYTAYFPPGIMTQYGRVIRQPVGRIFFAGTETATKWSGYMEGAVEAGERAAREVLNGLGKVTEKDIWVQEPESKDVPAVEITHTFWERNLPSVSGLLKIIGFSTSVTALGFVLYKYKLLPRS
The assay is described as follows: Inhibition of MAOA (unknown origin).

Assay [7] concerns the target T1, Lysine-specific histone demethylase 1A. The experiment in a line: Time-dependent inhibition of full length human fusion His6 tagged LSD1 expressed in Escherichia coli BL21(DE3) cells using H3K4me2 peptide substrate preincubated for 5 mins by peroxidase-coupled method.
Assay [8] has as its target T3, Amine oxidase [flavin-containing] B (Homo sapiens, UniProt P27338).
T3 sequence (P27338 whole entry): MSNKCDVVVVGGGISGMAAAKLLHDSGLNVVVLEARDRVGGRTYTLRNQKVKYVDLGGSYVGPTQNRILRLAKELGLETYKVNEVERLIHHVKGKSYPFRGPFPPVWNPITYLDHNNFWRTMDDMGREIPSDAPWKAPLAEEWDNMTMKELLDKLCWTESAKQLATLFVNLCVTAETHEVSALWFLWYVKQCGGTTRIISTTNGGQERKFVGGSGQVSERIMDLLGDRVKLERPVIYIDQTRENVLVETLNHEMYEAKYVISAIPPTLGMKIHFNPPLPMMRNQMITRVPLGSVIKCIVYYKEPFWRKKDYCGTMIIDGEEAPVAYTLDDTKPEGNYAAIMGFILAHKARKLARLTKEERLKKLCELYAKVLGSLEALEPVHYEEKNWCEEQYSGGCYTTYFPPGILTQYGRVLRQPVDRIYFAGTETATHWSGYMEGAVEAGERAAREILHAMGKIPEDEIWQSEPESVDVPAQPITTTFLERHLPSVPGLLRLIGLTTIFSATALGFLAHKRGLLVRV
The assay is described as follows: Inhibition of MAOB (unknown origin).

Assay [9] concerns the target T1, Lysine-specific histone demethylase 1A. The assay is described as follows: Potency index, ratio of IC50 for NCL1 to IC50 for test compound against full length human fusion His6 tagged LSD1 expressed in Escherichia coli BL21(DE3) cells.

The source made the active and inactive calls. The calls are words filed in the database; no cut-off is given here.

A word on the GI50: it is the concentration at which growth is held to half of that of the control. As to `NC1CC1c1cccc(OCC[C@H](NC(=O)c2ccccc2)C(=O)NCc2ccccc2)c1` (some centres not stated), the results for the GI50 with SH-SY5Y and in the assay on HeLa were 27 µM and 13 µM, respectively.

One may read the IC50 as the point on the concentration scale where inhibition reaches its midpoint. A high value points to a need for much substance. For the molecule `CN1CCN(C(=O)CNC2CC2c2cccc(O)c2)CC1` (configuration not stated), the GI50 in the assay with SH-SY5Y and with HeLa was above 240 µM each time. The same molecule gave an IC50 in assay [1] of 2.4 µM.

`CN1CCN(C(=O)CNC2CC2c2cccc(OCC[C@H](NC(=O)c3ccccc3)C(=O)NCc3ccccc3)c2)CC1` (some centres not stated): the Kinact in assay [2] was found to be 0.0035 s⁻¹. In addition, the inhibition result in [3], in assay [4] and in assay [5] was “Active” in each case. The GI50 in the assay on SH-SY5Y amounted to 42 µM; in the assay on HeLa, 109 µM. For the same molecule, the IC50 was above 100 µM in assay [6], 0.38 µM in assay [1] and above 100 µM in [8]. In assay [7], this molecule yielded a Ki of 2.4 µM. For the same molecule, in [7] (TDE = time-dependent effect), the inhibition entry was “tde”. The Ratio IC50 in [9] turned out to be 6.
